One experiment has as its system HCT-116. The experiment is described as follows: Growth inhibition of HCT116 cells by MTT assay. The format is functional, cell-based. The following applies: Homo sapiens. For orientation: Tetrazolium assays rely on reduction of a dye to a coloured formazan, in cell work by metabolically active cells.
Another experiment concerns PC-3. The experiment is described as follows: Growth inhibition of PC3 cells. The following applies: Homo sapiens.
For experiment [1], the target named is Casein kinase II subunit alpha (Zea mays, UniProt P28523). The experiment is described as follows: Inhibition of corn CK2 alpha.

Calls of active or inactive are those of the source. The calls are words filed in the database; no cut-off is given here.

Sequence of Casein kinase II subunit alpha (P28523 whole entry): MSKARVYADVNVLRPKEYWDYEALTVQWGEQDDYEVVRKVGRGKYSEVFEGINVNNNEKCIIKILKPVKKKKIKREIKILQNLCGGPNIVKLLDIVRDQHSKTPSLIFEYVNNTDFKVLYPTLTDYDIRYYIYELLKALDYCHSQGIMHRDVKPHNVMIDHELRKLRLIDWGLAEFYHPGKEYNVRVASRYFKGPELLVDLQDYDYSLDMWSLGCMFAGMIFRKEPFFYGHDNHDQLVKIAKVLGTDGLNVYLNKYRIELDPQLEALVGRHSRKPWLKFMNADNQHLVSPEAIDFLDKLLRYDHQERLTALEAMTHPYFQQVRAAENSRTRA

As a reminder, the IC50 is the concentration that inhibits the measured activity by half. For `CC(=O)Nc1cccc(Nc2nc(Nc3cccc(C(=O)N4CCCC4)c3)n3ncc(C#N)c3n2)c1`, the IC50 in the experiment on HCT-116 is 1.4 µM; in the experiment on PC-3 it was 0.78 µM.
For `CC(=O)Nc1cccc(Nc2nc(Nc3cccc(C(=O)O)c3)n3ncc(C#N)c3n2)c1`, in the experiment with HCT-116, the result was inactive.
The compound `CC(=O)Nc1cccc(Nc2nc(Nc3cccc(C(=O)NCCN(C)C)c3)n3ncc(C#N)c3n2)c1` came in with an IC50 with HCT-116 of 39 µM.
`CC(=O)Nc1cccc(Nc2nc(NC3CC3)n3ncc(C#N)c3n2)c1` had a 50% inhibitory concentration (IC50) in the experiment with HCT-116 of 2.3 µM. This IC50 is about 17-fold lower than that of the compound before.
For the compound `CC(=O)Nc1cccc(Nc2nc(NC3CC3)n3ncc(C)c3n2)c1`, the IC50 with HCT-116 stood at 43 µM.
In the experiment on HCT-116, `CC(=O)Nc1cccc(Nc2nc(Nc3ccccc3)n3ncc(C#N)c3n2)c1` returned a 50% inhibitory concentration (IC50) of 0.99 µM.
In the experiment on HCT-116, `CC(=O)Nc1cccc(Nc2nc(NC3CCC3)n3ncc(C#N)c3n2)c1` yielded an IC50 of 5.5 µM.
The term Ki denotes a dissociation constant, usually derived from enzyme kinetics or from competition with a known ligand. Read a low Ki as tighter binding. `N#Cc1cnn2c(Nc3ccccc3)nc(Nc3ccccc3)nc12`: in experiment [1], the affinity corresponds to a Ki of 0.024 µM. This counts as double-digit nanomolar.
On to `CCN(CC)Cc1ccc(Nc2nc(Nc3cccc(NC(C)=O)c3)nc3c(C#N)cnn23)cc1`, for which, in the experiment with HCT-116, the midpoint of inhibition, the IC50, lay at 2.2 µM. That is a single-digit micromolar value.
With `CC(=O)Nc1cccc(Nc2nc(Nc3ccccc3)n3ncc(C)c3n2)c1`, the IC50 in the experiment on HCT-116 amounted to 7.6 µM.
As to `CC(=O)Nc1cccc(Nc2nc(NC3CC3)n3ncc(Br)c3n2)c1`, in the experiment with HCT-116, inhibition was half-maximal at 18 µM (IC50).
As for `CCN(CC)C(=O)c1cccc(Nc2nc(Nc3cccc(NC(C)=O)c3)nc3c(C#N)cnn23)c1`, the values for the half-inhibitory concentration (IC50) in the experiment with HCT-116 and in the experiment on PC-3 were 0.76 µM and 0.61 µM, respectively.
`CC(=O)Nc1cccc(Nc2nc(Nc3cccc(OC(F)F)c3)n3ncc(C#N)c3n2)c1`: the values for the half-maximal inhibitory concentration (IC50) in the experiment on HCT-116 and in the experiment on PC-3 were 2.1 µM and 1.7 µM, respectively.
Taken in the same sequence, the figures for `CCOc1cccc(Nc2nc(Nc3cccc(NC(C)=O)c3)nc3c(C#N)cnn23)c1` were 1.48 µM and 1.2 µM.
Take `CCN(CC)c1cccc(Nc2nc(Nc3cccc(NC(C)=O)c3)nc3c(C#N)cnn23)c1`: the IC50 in the experiment with HCT-116 came to 2.5 µM.
Compound `CN(c1ccccc1)c1nc(Nc2ccccc2)n2ncc(C#N)c2n1` showed an inhibition constant (Ki) in experiment [1] of 0.242 µM.
As for `CC(=O)Nc1cccc(Nc2nc(Nc3ccc(CN4CCNCC4)cc3)n3ncc(C#N)c3n2)c1`, the half-inhibitory concentration (IC50) is 1.06 µM in the experiment on HCT-116 and 1.4 µM in the experiment with PC-3.

(Values after ChEMBL document CHEMBL1145386, “Structure-based design, synthesis, and study of pyrazolo[1,5-a][1,3,5]triazine derivatives as potent inhibitors of protein kinase CK2” (Bioorg Med Chem Lett, 2007).)
